Assay results from the Kinase Knowledgebase extract (Sharma et al. 2016).

Tests used:
PIK3CA (human) [1] = target: PIK3CA (human) (UniProt P42336); experiment: Inhibition of PIK3CA Kinase Activity
PIK3CA (human) [2] = target: PIK3CA (human) (UniProt P42336); experiment: Inhibition of A2780 Cell Proliferation

Chain of PIK3CA (human) (P42336 whole entry, looked up): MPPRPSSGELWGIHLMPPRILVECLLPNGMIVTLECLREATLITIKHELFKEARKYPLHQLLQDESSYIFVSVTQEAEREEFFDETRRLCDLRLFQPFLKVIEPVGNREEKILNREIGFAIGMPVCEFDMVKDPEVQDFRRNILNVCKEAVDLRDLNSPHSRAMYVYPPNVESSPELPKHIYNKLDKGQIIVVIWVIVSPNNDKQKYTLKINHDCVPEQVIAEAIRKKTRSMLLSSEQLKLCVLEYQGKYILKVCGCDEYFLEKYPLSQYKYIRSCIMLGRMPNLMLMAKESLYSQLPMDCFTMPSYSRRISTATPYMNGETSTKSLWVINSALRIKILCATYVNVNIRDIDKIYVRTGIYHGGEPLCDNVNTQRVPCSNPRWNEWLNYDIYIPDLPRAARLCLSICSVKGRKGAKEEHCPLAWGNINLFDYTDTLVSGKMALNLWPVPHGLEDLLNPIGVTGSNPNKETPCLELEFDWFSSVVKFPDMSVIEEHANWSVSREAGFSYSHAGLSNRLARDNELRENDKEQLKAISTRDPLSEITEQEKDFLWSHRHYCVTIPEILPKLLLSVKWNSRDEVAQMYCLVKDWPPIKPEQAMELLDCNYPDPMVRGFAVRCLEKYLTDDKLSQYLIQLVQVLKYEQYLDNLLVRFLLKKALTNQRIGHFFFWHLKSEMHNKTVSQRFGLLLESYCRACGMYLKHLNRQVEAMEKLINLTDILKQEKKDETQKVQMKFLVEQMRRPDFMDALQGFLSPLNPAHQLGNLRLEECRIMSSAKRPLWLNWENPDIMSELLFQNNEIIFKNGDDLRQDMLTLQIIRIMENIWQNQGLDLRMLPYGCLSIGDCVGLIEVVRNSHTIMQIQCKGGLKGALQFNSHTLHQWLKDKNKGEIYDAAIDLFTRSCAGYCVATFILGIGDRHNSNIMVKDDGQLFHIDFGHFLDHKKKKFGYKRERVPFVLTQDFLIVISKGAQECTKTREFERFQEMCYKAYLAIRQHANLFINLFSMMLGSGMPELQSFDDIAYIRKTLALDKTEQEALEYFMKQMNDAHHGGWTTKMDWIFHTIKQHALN

Compound | IC50 (PIK3CA (human) [1]) | EC50 (PIK3CA (human) [2])
CCN(CC)C(=O)c1cc(-c2ccc3nc(NC(C)=O)cn3c2)cnc1N | < 1 µM | < 10 µM
Nc1ncc(-c2ccc3nc(NC(=O)COCc4ccccc4)cn3n2)cc1C(F)(F)F | < 1 µM | < 10 µM
CC(=O)Nc1cn2cc(-c3cnc(N)c(OC4CCN(C)CC4)n3)ccc2n1 | < 10 µM | < 25 µM
Nc1ncc(-c2ccc3nc(NC(=O)N4CCCC4c4ccccn4)cn3c2)cc1C(F)(F)F (stereo unspecified) | < 1 µM | < 25 µM
CC(=O)Nc1nc2ccc(-c3cnc(N)c(C(F)(F)F)c3)cn2c1C#CCN1CCOCC1 | < 1 µM | < 10 µM
Nc1ncc(-c2ccc3nc(NC(=O)[C@@H]4CCCCN4Cc4ccccc4)cn3c2)cc1C(F)(F)F | < 1 µM | < 10 µM
COCC(=O)Nc1cn2cc(-c3cnc(N)c(OCC(F)(F)F)n3)ccc2n1 | < 1 µM | < 1 µM
CCC(=O)Nc1cn2cc(-c3cnc(N)c(OC)n3)ccc2n1 | < 1 µM | < 10 µM
CC(=O)Nc1cn2cc(-c3cnc(N)c(CN4CCCC4)c3)ccc2n1 | < 1 µM | < 25 µM
CC(=O)Nc1nc2ccc(-c3cnc(N)c(C(F)(F)F)c3)cn2c1C#Cc1cccnc1 | < 1 µM | < 1 µM
CC(=O)Nc1cn2nc(-c3cnc(N)c(-c4ccccc4Oc4ccccc4)c3)ccc2n1 | < 1 µM | < 10 µM
CC(=O)Nc1nc2ccc(-c3cnc(N)c(C(F)(F)F)c3)cn2c1-c1ccccc1 | < 1 µM | < 25 µM
CNC(=O)Nc1nc2ccc(-c3ccc(N)nc3)cc2s1 | < 1 µM | < 10 µM
CC(=O)Nc1cn2cc(-c3cnc(N)c(-c4ccccc4)c3)ccc2n1 | < 1 µM | < 10 µM
CC(=O)Nc1cn2nc(-c3cnc(N)c(C(=O)O)c3)ccc2n1 | < 1 µM | < 25 µM
CC(=O)Nc1nc2ccc(-c3cnc(N)nc3C(F)(F)F)cc2s1 | < 1 µM | < 25 µM
CC(=O)N1CCC[C@H]1C(=O)Nc1cn2cc(-c3cnc(N)c(Cl)c3)ccc2n1 | < 1 µM | < 25 µM
COCCOc1nc(-c2ccc3nc(NC(=O)C4CCN4)cn3c2)cnc1N (stereo unspecified) | < 1 µM | < 25 µM
CC(=O)Nc1cn2cc(-c3cnc(N)c(-c4cccc(F)c4)c3)ccc2n1 | < 1 µM | < 10 µM
CC(=O)Nc1cn2cc(-c3cnc(N)c(C=O)c3)ccc2n1 | < 1 µM | < 10 µM
Nc1ncc(-c2ccc3nc(NC(=O)C4CNC4)cn3n2)cc1C(F)(F)F | < 1 µM | < 10 µM
Nc1ncc(-c2ccc3nc(NC(=O)C4CNC4)cn3n2)cc1Cl | < 1 µM | < 25 µM
CC(=O)Nc1cn2nc(-c3cnc(N)c(Cl)c3)ccc2n1 | < 1 µM | < 1 µM
CCCNc1ccc(-c2ccc3nc(NC(C)=O)sc3c2)cn1 | < 1 µM | < 25 µM
COc1c(-c2cnc(N)c(C(F)(F)F)c2)ccc2nc(NC(=O)C(F)(F)F)cn12 | < 25 µM | < 25 µM
CC(=O)Nc1cn2cc(-c3cnc(N)c(-c4cccc(C(F)(F)F)c4)c3)ccc2n1 | < 1 µM | < 1 µM

Compound | IC50 (PIK3CA (human) [1]) | EC50 (PIK3CA (human) [2])
Nc1ncc(-c2ccc3nc(NC(=O)CCC4CCCCN4)cn3n2)cc1C(F)(F)F (stereo unspecified) | < 1 µM | < 1 µM
CNCC(=O)Nc1cn2cc(-c3cnc(N)c(OCCOC)n3)ccc2n1 | < 1 µM | < 10 µM
CC(=O)Nc1nc2ccc(-c3cnc(N)c(C(F)(F)F)c3)cn2c1CCc1ccccc1 | < 1 µM | < 10 µM
CC(=O)Nc1cn2cc(-c3cnc(N)c(-c4ccc(OC(F)(F)F)cc4)c3)ccc2n1 | < 1 µM | < 1 µM
CC(=O)Nc1cn2nc(-c3cnc(N)c(-c4ccc(C(F)(F)F)cc4)c3)ccc2n1 | < 1 µM | < 1 µM
CC(=O)Nc1ccc(-c2c(NC(C)=O)nc3ccc(-c4cnc(N)c(C(F)(F)F)c4)cn23)cc1 | < 1 µM | < 25 µM
Nc1ccc(-c2ccc3nc(NC(=O)CCCN4CCOCC4)sc3c2)cn1 | < 1 µM | < 25 µM
CC(=O)Nc1cn2cc(-c3cnc(N)c(OC4CN(C(=O)c5ccccc5)C4)n3)ccc2n1 | < 1 µM | < 10 µM
COc1cc(-c2ccc3nc(NC(C)=O)cn3c2C)cnc1N | < 1 µM | < 25 µM
CC(=O)Nc1cn2cc(-c3cnc(N)c(C#N)c3)ccc2n1 | < 1 µM | < 10 µM
CC(=O)Nc1cn2cc(-c3cnc(N)c(Oc4cccnc4)n3)ccc2n1 | < 1 µM | < 1 µM
CC(=O)Nc1cn2cc(-c3cnc(N)c(-c4ccccc4OC(F)(F)F)c3)ccc2n1 | < 1 µM | < 10 µM
CC(=O)Nc1cn2nc(-c3cnc(N)c(-c4ccccc4C(F)(F)F)c3)ccc2n1 | < 1 µM | < 1 µM
CC(=O)Nc1nc2ccc(-c3cnc(N)c(C(F)(F)F)c3)cn2c1C#Cc1ccncc1 | < 1 µM | < 1 µM
CC(=O)Nc1nc2cc(F)c(-c3cnc(N)c(C(F)(F)F)c3)cc2s1 | < 1 µM | < 25 µM
CC(=O)Nc1cn2cc(-c3ccc(N)nc3C)ccc2n1 | < 1 µM | < 25 µM
CC(=O)Nc1cn2nc(-c3cnc(N)c(-c4ccccc4OC(F)(F)F)c3)ccc2n1 | < 1 µM | < 1 µM
CC(=O)Nc1nc2ccc(-c3cnc(N)c(OCC(F)(F)F)n3)cc2s1 | < 1 µM | < 1 µM
CC(=O)Nc1cn2cc(-c3cnc(N)c(C(=O)N4CCNCC4)c3)ccc2n1 | < 1 µM | < 25 µM
CC(C)C(=O)Nc1cn2cc(-c3cnc(N)c(OCC(F)(F)F)n3)ccc2n1 | < 1 µM | < 10 µM
CC(=O)Nc1cn2cc(-c3cnc(N)c(-c4cccc(N5CCOCC5)c4)c3)ccc2n1 | < 1 µM | < 1 µM
C[C@@H](N)C(=O)Nc1cn2nc(-c3cnc(N)c(C(F)(F)F)c3)ccc2n1 | < 1 µM | < 10 µM
CC(=O)Nc1cn2cc(-c3cnc(N)c(-c4ccccc4F)c3)ccc2n1 | < 1 µM | < 10 µM
Nc1ccc(-c2ccc3nc(NC(=O)CN4CCOCC4)sc3c2)cn1 | < 1 µM | < 25 µM
CC(=O)Nc1cn2cc(-c3cnc(N)c(C(=O)NCCO)n3)ccc2n1 | < 1 µM | < 25 µM

The remaining lines, values ahead:

IC50 (PIK3CA (human) [1]) | EC50 (PIK3CA (human) [2]) | Compound
< 1 µM | < 10 µM | Nc1ncc(-c2ccc3nc(NC(=O)CCO)cn3c2)cc1C(F)(F)F
< 1 µM | < 10 µM | NCC(=O)Nc1cn2cc(-c3cnc(N)c(C(F)(F)F)c3)ccc2n1
< 1 µM | < 10 µM | Nc1ncc(-c2ccc3nc(NC(=O)c4cccc(F)c4)cn3c2)cc1C(F)(F)F
< 1 µM | < 10 µM | CC(=O)Nc1nc2ccc(-c3cnc(N)c(C(F)(F)F)c3)cn2c1Cl
< 1 µM | < 10 µM | COC(=O)CCCC(=O)Nc1cn2nc(-c3cnc(N)c(C(F)(F)F)c3)ccc2n1
< 1 µM | < 10 µM | CC(=O)Nc1cn2cc(-c3cnc(N)c(C)c3)ccc2n1
< 1 µM | < 1 µM | COCC(=O)Nc1cn2nc(-c3cnc(N)c(C(F)(F)F)c3)ccc2n1
< 1 µM | < 1 µM | CC(=O)Nc1cn2cc(-c3cnc(N)c(-c4ccc(C(F)(F)F)cc4)c3)ccc2n1
< 1 µM | < 10 µM | CC(=O)Nc1cn2cc(-c3cnc(N)c(Cl)c3)ccc2n1
< 1 µM | < 10 µM | CCOCC(=O)Nc1cn2nc(-c3cnc(N)c(C(F)(F)F)c3)ccc2n1
< 1 µM | < 10 µM | CC(C)(C)OC(=O)N1CCC(OCC(=O)Nc2cn3cc(-c4cnc(N)c(C(F)(F)F)c4)ccc3n2)CC1
< 1 µM | < 10 µM | Nc1ncc(-c2ccc3nc(NC(=O)N4CC[C@H](O)C4)cn3c2)cc1C(F)(F)F
< 1 µM | < 10 µM | Nc1ncc(-c2ccc3nc(NC(=O)CCCn4ccnc4)cn3c2)cc1C(F)(F)F
< 1 µM | < 25 µM | NC(=O)N1CC[C@H]1C(=O)Nc1cn2cc(-c3cnc(N)c(C(F)(F)F)c3)ccc2n1
< 1 µM | < 10 µM | CCOC(=O)CC(=O)Nc1cn2cc(-c3cnc(N)c(C(F)(F)F)c3)ccc2n1
< 1 µM | < 1 µM | CCC(=O)Nc1cn2nc(-c3cnc(N)c(C(F)(F)F)c3)ccc2n1

IC50 (PIK3CA (human) [1]) | EC50 (PIK3CA (human) [2]) | Compound
< 1 µM | < 10 µM | Nc1ncc(-c2ccc3nc(NC(=O)CO[C@@H]4CCNC4)cn3c2)cc1C(F)(F)F
< 1 µM | < 10 µM | CC(=O)Nc1cn2cc(-c3cnc(N)c(C(F)(F)F)c3)cc(F)c2n1
< 1 µM | < 10 µM | Nc1ncc(-c2ccc3nc(NC(=O)N4CCC[C@H]4CO)cn3c2)cc1C(F)(F)F
< 1 µM | < 25 µM | Nc1ncc(-c2ccc3nc(NC(=O)c4ccncc4)cn3c2)cc1C(F)(F)F
< 1 µM | < 1 µM | CNCC(=O)Nc1cn2nc(-c3cnc(N)c(C(F)(F)F)c3)ccc2n1
< 1 µM | < 1 µM | Nc1ncc(-c2ccc3nc(NC(=O)c4ccc(F)cc4)cn3c2)cc1C(F)(F)F
< 1 µM | < 1 µM | CNCC(=O)Nc1cn2cc(-c3cnc(N)c(C(F)(F)F)c3)ccc2n1
< 25 µM | < 10 µM | Nc1ncc(-c2ccc3nc(NC(=O)[C@@H]4CCCN4)cn3c2)cc1C(F)(F)F
< 1 µM | < 10 µM | CC(C)(C)OC(=O)N1CC(C(=O)Nc2cn3cc(-c4cnc(N)c(C(F)(F)F)c4)ccc3n2)C1
< 1 µM | < 1 µM | CC(=O)Nc1cn2cc(-c3cnc(N)c(C=NNCC(F)(F)F)c3)ccc2n1
< 1 µM | < 10 µM | Nc1ncc(-c2ccc3nc(NC(=O)C4CNC4)cn3c2)cc1C(F)(F)F
< 1 µM | < 25 µM | Nc1ncc(-c2ccc3nc(NC(=O)CCCC(=O)O)cn3n2)cc1C(F)(F)F
< 1 µM | < 10 µM | Nc1ncc(-c2ccc3nc(NC(=O)c4cccc(Cl)c4)cn3c2)cc1C(F)(F)F
< 1 µM | < 1 µM | NCC(=O)Nc1cn2nc(-c3cnc(N)c(C(F)(F)F)c3)ccc2n1
< 1 µM | < 10 µM | NCCC(=O)Nc1cn2nc(-c3cnc(N)c(C(F)(F)F)c3)ccc2n1
< 1 µM | < 10 µM | CC(=O)Nc1cn2c(C)c(-c3cnc(N)c(C(F)(F)F)c3)ccc2n1
